The values below come from EP4772506A1, “COMPOUND FOR REGULATING ACTIVITY OF MICRORNA-124” (Jiangsu Chia Tai Fenghai Pharmaceutical Co., Ltd., priority 2023, dated 2025).

Structures are written as SMILES.

The term AUC(0-t) denotes exposure summed from dosing to a finite time, without extrapolation to infinity. Higher therefore signals more exposure. What is called MRT inf is a mean duration of stay, worked out from the concentration-time curve. Broadly, the half-life is the time in which the quantity being followed falls by half. By Cmax is commonly meant the maximum level reached in the sampled fluid or tissue. What is called Tmax is the time at which the peak concentration occurs.

Series [1] can be described thus: Pharmacokinetic study in rats (plasma, LC-MS/MS). Conditions: for F: absolute bioavailability, SD male rats, p.o. 25 mg/kg vs i.v. 1 mg/kg; for AUC(0-t) / MRT inf / half-life / Cmax / Tmax: rat.
Protocol: • (1) SD male rats were used as test animals.
The administration solvent was a physiological saline solution containing 10% DMSO + 10% polyoxyl castor oil (Cremophor EL). Fasting was maintained for approximately 12 hours prior to administration, and free feeding was allowed 4 hours post-administration, with no water restriction. […] After gently inverting the tube to fully mix the anticoagulant EDTA-K2 with the blood, the tube was immediately placed on wet ice. The plasma was separated by centrifugation immediately after blood collection under the following centrifugation conditions: 4°C, 3500 rpm, and 5 min. The upper plasma layer was transferred and stored at -80°C until sample analysis. […] The pharmacokinetic parameters were calculated from the sample analysis results using WinNonlin software.
For series [2], the system named is miR124. The series is described as follows: Effect of the compound on miR124 upregulation in PBMCs (qPCR, U6 as internal reference). Type of series: cell-based, human. As to conditions: miR-124 expression, 5 µM, 6 days, batches normalized. For orientation: Real-time PCR tracks product formation cycle by cycle.
Protocol: The effect of test compounds on miR124 expression levels was evaluated in human peripheral blood mononuclear cells (PBMCs). […] Test compounds (final concentration: 5 µM) were added for treatment at 37°C, 5% CO2 for 6 days, with medium replacement on day 3. The control group was treated with an equal volume of DMSO under the same conditions.
RNA Extraction: On day 6, cells were collected in a 15 mL centrifuge tube and centrifuged at 400g for 10 min, followed by supernatant removal. […] The upper RNA layer was aspirated into a clean 1.5 mL centrifuge tube (RNase-free), an equal volume of isopropanol was added, and left at room temperature for 10 min to precipitate RNA. Centrifugation at 4°C and 12000g for 10 min yielded a small white pellet at the tube bottom.
Fluorescent quantitative PCR reaction: miRNA quantification was performed using SYBR Green I intercalating fluorescence method, with simultaneous detection of the housekeeping gene U6 transcript level as internal reference.
Series [3] concerns dextran sulfate sodium (DSS)-induced ulcerative colitis. Briefly: Preventive and therapeutic effects on DSS-induced ulcerative colitis (UC) in mice. As to conditions: 50 mg/kg qd by gavage; for relative body weight (% of initial): mean ± SEM. The class given is in vivo, C57BL/6 mice. As for the experimental part: The preventive and therapeutic effects of the positive drug ABX464 and Compound 23 of the present disclosure on dextran sulfate sodium (DSS)-induced ulcerative colitis were evaluated using a DSS-induced ulcerative colitis (UC) model.
Female C57BL/6 mice (20-22 g) were randomly divided into 7 groups according to body weight after adaptive feeding, as shown in Table 4. On day 1, the mice were switched to 3% DSS feeding. After 10 days of DSS feeding, they were switched back to normal drinking water until day 13. From day 1 to day 13, the mice were continuously administered the corresponding solvents and drugs by gavage. Body weight changes were recorded daily from day 1 to day 13. On day 13, after recording body weight, the mice were dissected to measure colon length. The preventive and therapeutic effects of the test drug on ulcerative colitis in mice were evaluated based on relative body weight change rate and colon length. Table 4. Experimental animal grouping and model induction period

Series [4] can be described thus: Pharmacokinetic study in beagle dogs (plasma, LC-MS/MS). The class given is in vivo. As for the experimental part:
The pharmacokinetic characteristics of test compound 45 was investigated in beagle dogs.
The gavage group was fasted for no less than 12 hours before administration, with free access to water. After 4 h of administration, the dogs were fed uniformly. […] The upper plasma layer was transferred and stored at -20°C until sample analysis. The concentration of the test compound in dog plasma was determined using the LC-MS/MS method. Pharmacokinetic parameters were fitted using WinNonlin software, and absolute bioavailability was calculated. Table 6. Pharmacokinetic parameters of compounds in beagle dogs

Where [5] appears, read: male, Sprague-Dawley (SD), plasma, po, 20 mg/kg.

As for `CN(C)CCN(C)c1cc(Cl)cc2nc(Nc3ccc(OC(F)(F)F)cc3)ncc12` [Compound 44], the F in series [1] came out at 34.3%. In series [1] (in vivo, iv, 1 mg/kg), this compound showed an AUC(0-t) of 650 ng·h/mL, an MRT inf of 8.9 h and a half-life of 15.1 h. Also, in series [1] (in vivo, po, 25 mg/kg), the AUC(0-t) came out at 5570 ng·h/mL, the highest level (Cmax) was 389 ng/mL, the MRT inf was 8.2 h and the Tmax is 6 h. In addition, in series [1] (in vivo, po, 25 mg/kg), the half-life is 8.7 h.

On to `FC(F)(F)Oc1ccc(Nc2ccc3cccc(Cl)c3n2)cc1` [ABX464, reference compound], for which, in series [1] (setting [5]), the exposure AUC(0-t) came to 2310 ng·h/mL. This compound yielded a Cmax in series [1] (setting [5]) of 727 ng/mL. Besides, the MRT inf in series [1] (setting [5]) is 2.73 h. Further, the Tmax in series [1] (setting [5]) stood at 2 h. Moreover, the half-life in series [1] (setting [5]) was 0.86 h. In addition, the “Average fold change compared to DMSO treatment, Average value” in series [2] was found to be 6.91. Besides, the weight loss in series [3] (by day 10) is reported as 6.02%. Besides, the “relative body weight (% of initial)” value is recorded as 100±0.00% in series [3] (day 1); 101.6± 0.45% in series [3] (day 2); 101.9± 0.47% in series [3] (day 3); 101.9± 0.62% in series [3] (day 4); 101.1± 0.82% in series [3] (day 5); 98.5±0.79% in series [3] (day 6). Besides, the “relative body weight (% of initial)” value in series [3] (day 7) is on record as 95.6±1.09%; in series [3] (day 8), 93.5± 1.35%; in series [3] (day 9) it was 93.0±1.33%; in series [3] (day 10), 94.0± 1.27 %; in series [3] (day 11) it was 92.4± 2.22 %; in series [3] (day 12), 92.7±2.19%. Further, the “relative body weight (% of initial)” value in series [3] (day 13) turned out to be 92.0±2.52%. For the same compound, in series [3] (day 13), the Colon length Mean turned out to be 7.72 cm. Further, the “Relative colon length (%)” value in series [3] (of the control group, day 13, 50 mg/kg) turned out to be 96.5%.

Compound `FC(F)(F)Oc1ccc(Nc2ncc3c(N4CCOCC4)cc(Cl)cc3n2)cc1` [Compound 45] had a F in series [4] (absolute bioavailability, p.o. 6 mg/kg vs i.v. 1 mg/kg) of 10.7%. In series [4] (dog, in vivo, iv, i.v. 1mg/kg), the exposure AUC(0-t) was found to be 1560 ng·h/mL, the MRT inf was 3.56 h and the half-life is 8.88 h. Also, in series [4] (dog, in vivo, po, p.o. 6 mg/kg), the AUC(0-t) is 990 ng·h/mL, the maximum concentration (Cmax) is 204 ng/mL, the mean residence time MRT inf was 5.9 h and the time to peak (Tmax) is 2 h. In series [4] (dog, in vivo, po, p.o. 6 mg/kg), this compound had a half-life of 7.18 h. In addition, the F in series [1] turned out to be 27.6%. Besides, in series [1] (in vivo, iv, 1 mg/kg), the AUC(0-t) stood at 1180 ng·h/mL, the MRT inf turned out to be 1.5 h and the half-life is 2.2 h. Further, in series [1] (in vivo, po, 25 mg/kg), the AUC(0-t) came out at 8400 ng·h/mL, the Cmax turned out to be 2550 ng/mL, the MRT inf was 3.2 h and the Tmax stood at 2 h. In series [1] (in vivo, po, 25 mg/kg), this compound had a half-life of 5.4 h.
